Experimental data taken from patent US5389613A, “Method of treating prostate adenocarcinoma, prostate benign hypertrophia and endometriosis” (Roussel Uclaf, priority 1979, dated 1995).
Entries after “also recorded” stand apart in the source; their conditions may differ.

Assays:
ovarian steroidogenosis = assay: Inhibitory activity on ovarian steroidogenesis in women (seric LH, FSH, progesterone, estradiol); type: in vivo; settings: for reduction of seric levels of progesterone compared to the controls: typical subject (sheet 3), 500 μg intranasal at 8 A.M. and 5 P.M.
Description: The study was conducted for 6 consecutive cycles consisting of 2 pretreatment cycles, 2 treatment cycles and 2 post-treatment cycles. […] Daily blood samples were taken between 4 and 6 P.M. to measure seric levels of LH, FSH, progesterone and estradiol which were determined by radioimmuno-logic tests with double antibodies. The antibodies to measure LH and FSH were furnished by the National Pituitory Agency of N.I.H. of Bethesda, Md.
Estradiol and progesterone were measured with highly specific antibodies developed against 7-(0-carboxymethyl)-oxime of estradiol and 12-(0-carboxymethyl)-oxime of progesterone, respectively [3H] 17β-estradiol and ^125 I-progesterone -12-[0-carboxymethyl)-oxime] used as tracers. The serum was extracted with benzene and the steroids were separated with a LH-20 column before the determination. The radioimmunological results were exploited by the program derived from model II of Rodbard and Lewald as in Example 1 and the statistical significance was measured by the multiple level test of Ducan-Kramer of Example 1. The results are shown in the graphs of sheets 3 to 5 of the Figures.

[1] = system: testicular steriodogenosis; assay: Inhibitory activity on testicular steroidogenesis in a patient with prostate cancer (plasmatic steroids); type: in vivo, human; settings: 500 μg intranasally twice a day
Description: The results are reported in the graphs of sheet 2 of the Figures.

[2] = system: testicular steroidogensis; assay: Inhibitory activity against testicular steroidogenesis in men in good health (seric LH, FSH and steroids by radioimmunoassay); type: in vivo
Description: The said product was administered intranasally at a dose of 500 μg in a few drops of distilled water at 8 A.M. on the third day of the test. For 2 days prior to the treatment and for 6 days after the treatment, samples of blood were taken daily at 8 A.M., 3 P.M. and 10 P.M. On the day of administration of the LH-RH agonist, blood samples were taken at 11 A.M. and 6 P.M.
The seric concentrations of LH and FSH were measured by radioimmuno-logic dosages with double antibodies and the antibodies for measuring LH and FSH were furnished by the National Pituitary Agency of N.I.H. in Bethesda, Md. The seric concentrations of steroids was measured by radioimmuno-logic dosages in which one ml of serum was extracted with ether and the steroids were separated on a LH-20 column before measuring with radioimmuno-logic dosages. The radioimmuno-logic dosage results were determined by a program derived from model II of Rodbard et al [Second Karolinska Symposium on Research Methods in Reproductive Endroerinology, Diczfalusky Editor, Copenhague (1970), p. 79-103]. The statistical significance was determined by the "multiple level test" of Duncan-Kramer [Kramer, Biometrics, Vol 12 (1956), p. 307]. The results are shown in the graphs on sheet 1 of the Figures filed herewith.

[3] = intranasal 500 μg, men, 3rd day following administration

CCNC(=O)[C@@H]1CCCN1C(=O)[C@H](CCCNC(=N)N)NC(=O)[C@H](CC(C)C)NC(=O)[C@@H](COC(C)(C)C)NC(=O)[C@H](Cc1ccc(O)cc1)NC(=O)[C@H](CO)NC(=O)[C@H](Cc1c[nH]c2ccccc12)NC(=O)[C@H](Cc1c[nH]cn1)NC(=O)[C@@H]1CCC(=O)N1 [D Ser (Tbu)^6 of Gly^10 LH-RH ethylamide, [D Ser (Tbu)^6 des.Gly NH2^10] LH-RH ethylamide]
level of progesterone, pretreatment cycles as base of 100% (ovarian steroidogenosis; 12 cycles of post-treatment): 99% | level of progesterone, pretreatment cycles as base of 100% (ovarian steroidogenosis; 12 cycles of treatment): 46% | level of progesterone reduced as compared to the controls (ovarian steroidogenosis; 12 cycles of treatment (sheet 5), scale 13 to 127%): 46% | reduction of seric levels of progesterone compared to the controls (ovarian steroidogenosis; first cycle of treatment): 13% | reduction of seric levels of progesterone compared to the controls (ovarian steroidogenosis; second cycle of treatment): 34% | androgenic steroids (plasmatic) [1]: diminution | level of testosterone ([1]; two weeks of treatment): stabilized at a very low level | effect on testicular steroidogenesis in man ([2]; intranasal 500 μg, men): inhibition of testicular steroidogenesis | seric concentration of 17-OH-progesterone relative to initial control values [2, 3]: 40% | seric concentration of testosterone relative to initial control values [2, 3]: 50% | LH and FSH plasmatic levels ([2]; intranasal 500 μg, men, day of administration): increase | seric concentration of pregnenolone, 17-OH-pregnenolone, progesterone, 17-OH-progesterone, Δ5-androstene-3β,17β-diol and testosterone ([2]; intranasal 500 μg, men, on the day of treatment): increased | level of testosterone/steroids on the fourth day after administration ([2]; single intranasal dose of 500 μg, fourth day after administration): returned to normal; also recorded: return to normal levels | duration of the drop of seric levels of testicular steroids (testosterone and its precursors) ([2]; single intranasal dose of 500 μg, human): 3 days
